Test results as given in patent publication US5279935A, “Method of immunossay including deactivation of endogenous alkaline phosphatase” (Becton, Dickinson and Company, priority 1990, dated 1994).
Like-named read-outs stand apart in the source and are kept apart here.

How the values were obtained:
E. coli AP = E. coli AP (Escherichia coli, UniProt P00634); assay type: biochemical
[1] = tested on: endogenous AP in uninfected MDCK cells; set-up: species or system canine
[2] = 4.8 units/test of E. coli AP spike
[3] = 4.8 units/test of E. coli AP spike, no antigen, acid wash 0.15M
[4] = 600 ng uninfected MDCK cells, acid wash 0.15M

Sequence of E. coli AP (P00634 22-471): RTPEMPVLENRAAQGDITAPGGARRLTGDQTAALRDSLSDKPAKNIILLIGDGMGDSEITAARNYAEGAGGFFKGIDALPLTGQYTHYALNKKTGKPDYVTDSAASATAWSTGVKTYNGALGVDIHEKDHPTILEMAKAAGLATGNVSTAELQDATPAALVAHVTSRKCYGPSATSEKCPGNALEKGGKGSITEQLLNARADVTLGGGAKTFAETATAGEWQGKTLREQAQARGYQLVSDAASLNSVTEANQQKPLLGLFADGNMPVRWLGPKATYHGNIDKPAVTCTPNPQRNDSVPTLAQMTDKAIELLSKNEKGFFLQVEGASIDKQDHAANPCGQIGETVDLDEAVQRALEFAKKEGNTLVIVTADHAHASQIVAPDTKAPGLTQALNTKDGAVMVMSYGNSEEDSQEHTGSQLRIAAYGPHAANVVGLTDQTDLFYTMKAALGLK

Compound	reduction of signal due to the AP spike in comparison to the control (no acid) (E. coli AP; [2])	reflectance (E. coli AP; [3])	Reflectance (arbitrary units) [1, 4]	visual (E. coli AP; [3])	reflectance (E. coli AP)	visual (E. coli AP)	Reflectance (arbitrary units) [1]
O=C(O)CC(O)(CC(=O)O)C(=O)O [A, citric acid]	most effective	.03	.12 arbitrary units	–	–	–	–
O=C(O)CCCC(=O)O [B, glutaric acid]	–	.06	.10 arbitrary units	(+)	–	–	–
O=C(O)C(O)C(O)C(=O)O (stereo not drawn) [C, tartaric acid]	most effective	.04	.10 arbitrary units	–	–	–	–
O=C(O)CCC(=O)O [D, succinic acid]	–	–	–	–	.06	(+)	.10 arbitrary units
O=C(O)CC(O)C(=O)O (stereo not drawn) [E, malic acid]	–	.06	.12 arbitrary units	(+)	–	–	–
CC(O)C(=O)O (stereo not drawn) [F, lactic acid]	–	.06	.12 arbitrary units	(+)	–	–	–
